In US12037340B2, “Pentacyclic derivatives as Zika virus inhibitors” (Gilead Sciences, Inc., priority 2021, dated 2024):

Tested on: ZIKV
Test: microbe, parasite or virus in culture
Type: cell-based, Zika virus
Conditions: 48 hrs

| Molecule | EC50 [nM] | EC50 (Zika virus, Huh-7) [nM] |
| --- | --- | --- |
| COC(=O)N[C@H](C(=O)N1[C@H](c2nc(Cl)c(-c3ccc4c(c3)COc3cc5c(ccc6nc([C@@H]7C[C@@H]8CCC[C@@H]8N7C(=O)[C@@H](NC(=O)OC)C7C[C@@H](C)O[C@H](C)C7)[nH]c65)cc3-4)[nH]2)C[C@@H]2CCC[C@@H]21)C1C[C@@H](C)O[C@H](C)C1 (stereo partly drawn) [Compound 36, methyl ((S)-2-((2S,3aS,6aS)-2-(4-chloro-5-(2-((2S,3aS,6aS)-1-((S)-2-((2R,6R)-2,6-dimethyltetrahydro-2H-pyran-4-yl)-2-((methoxycarbonyl)amino)acetyl)octahydrocyclopenta[b]pyrrol-2-yl)-1,11-dihydroisochromeno[4′,3′:6,7]naphtho[1,2-d]imidazol-9-yl)-1H-imidazol-2-yl)hexahydrocyclopenta[b]pyrrol-l(2H)-yl)-1-((2R,6R)-2,6-dimethyltetrahydro-2H-pyran-4-yl)-2-oxoethyl)carbamate] | 46.9 | – |
| CC[C@H](C)[C@H](NC(=O)OC)C(=O)N1[C@@H](C)CC[C@H]1c1nc(Cl)c(-c2ccc3c(c2)COc2cc4c(ccc5nc([C@@H]6CC[C@H](C)N6C(=O)[C@@H](NC(=O)OC)C6CCOCC6)[nH]c54)cc2-3)[nH]1 [Compound 15, methyl ((S)-2-((2S,5S)-2-(9-(4-chloro-2-((2S,5S)-1-((methoxycarbonyl)-L-isoleucyl)-5-methylpyrrolidin-2-yl)-1H-imidazol-5-yl)-1,11-dihydroisochromeno[4′,3′:6,7]naphtho[1,2-d]imidazol-2-yl)-5-methylpyrrolidin-1-yl)-2-oxo-1-(tetrahydro-2H-pyran-4-yl)ethyl)carbamate] | – | 7.7 |
| COC(=O)N[C@H](C(=O)N1CCC[C@H]1c1nc(Cl)c(-c2ccc3c(c2)COc2cc4c(ccc5nc([C@@H]6CCCN6C(=O)[C@@H](NC(=O)OC)C(C)(C)C)[nH]c54)cc2-3)[nH]1)C(C)(C)C [Compound 30, methyl ((S)-1-((S)-2-(4-chloro-5-(2-((S)-1-((S)-2-((methoxycarbonyl)amino)-3,3-dimethylbutanoyl)pyrrolidin-2-yl)-1,11-dihydroisochromeno[4′,3′:6,7]naphtho[1,2-d]imidazol-9-yl)-1H-imidazol-2-yl)pyrrolidin-1-yl)-3,3-dimethyl-1-oxobutan-2-yl)carbamate] | – | 44.7 |
| CC[C@H](C)[C@H](NC(=O)OC)C(=O)N1[C@H](c2nc(Cl)c(-c3ccc4c(c3)COc3cc5c(ccc6nc([C@@H]7C[C@@H]8CCC[C@@H]8N7C(=O)[C@@H](NC(=O)OC)[C@@H](C)CC)[nH]c65)cc3-4)[nH]2)C[C@@H]2CCC[C@@H]21 [Compound 35, methyl ((2S,3S)-1-((2S,3aS,6aS)-2-(4-chloro-5-(2-((2S,3aS,6aS)-1-((methoxycarbonyl)-L-isoleucyl)octahydrocyclopenta[b]pyrrol-2-yl)-1,11-dihydroisochromeno[4′,3′:6,7]naphtho[1,2-d]imidazol-9-yl)-1H-imidazol-2-yl)hexahydrocyclopenta[b]pyrrol-l(2H)-yl)-3-methyl-1-oxopentan-2-yl)carbamate] | 20.9 | – |
| methyl ((S)-1-((2S,5S)-2-(5-(2-((2S,5S)-1-(O-(tert-butyl)-N-(methoxycarbonyl)-L-threonyl)-5-methylpyrrolidin-2-yl)-1,11-dihydroisochromeno[4′,3′:6,7]naphtho[1,2-d]imidazol-9-yl)-4-chloro-1H-imidazol-2-yl)-5-methylpyrrolidin-1-yl)-3-methyl-1-oxobutan-2-yl)carbamate [Compound 1] | 24.9 | – |
| CC[C@H](C)[C@H](NC(=O)OC)C(=O)N1C[C@@H](COC)C[C@H]1c1nc(Cl)c(-c2ccc3c(c2)COc2cc4c(ccc5nc([C@@H]6CC[C@H](C)N6C(=O)[C@@H](NC(=O)OC)C(C)C)[nH]c54)cc2-3)[nH]1 [Compound 14, methyl ((S)-1-((2S,5S)-2-(9-(4-chloro-2-((2S,4S)-1-((methoxycarbonyl)-L-isoleucyl)-4-(methoxymethyl)pyrrolidin-2-yl)-1H-imidazol-5-yl)-1,11-dihydroisochromeno[4′,3′:6,7]naphtho[1,2-d]imidazol-2-yl)-5-methylpyrrolidin-1-yl)-3-methyl-1-oxobutan-2-yl)carbamate] | – | 9.7 |
| COC(=O)N[C@H](C(=O)N1CCC[C@H]1c1nc(Cl)c(-c2ccc3c(c2)COc2cc4c(ccc5nc([C@@H]6CCCN6C(=O)[C@@H](NC(=O)OC)C(C)(C)C(F)(F)F)[nH]c54)cc2-3)[nH]1)C(C)(C)C(F)(F)F [Compound 29, methyl ((S)-1-((S)-2-(4-chloro-5-(2-((S)-1-((S)-4,4,4-trifluoro-2-((methoxycarbonyl)amino)-3,3-dimethylbutanoyl)pyrrolidin-2-yl)-1,11-dihydroisochromeno[4′,3′:6,7]naphtho[1,2-d]imidazol-9-yl)-1H-imidazol-2-yl)pyrrolidin-l-yl)-4,4,4-trifluoro-3,3-dimethyl-1-oxobutan-2-yl)carbamate] | 11.4 | – |
| methyl ((2S,3S)-1-((S)-6-(4-chloro-5-(2-((S)-5-((methoxycarbonyl)-L-isoleucyl)-5-azaspiro[2.4]heptan-6-yl)-1-dihydroisochromeno[4′,3′:6,7]naphtho[1,2-d]imidazol-9-yl)-1H-imidazol-2-yl)-5-azaspiro[2.4]heptan-5-yl)-3-methyl-1-oxopentan-2-yl)carbamate [Compound 3] | 18.6 | – |
| COC(=O)N[C@H](C(=O)N1[C@@H](C)CC[C@H]1c1nc(Br)c(-c2ccc3c(c2)COc2cc4c(ccc5nc([C@@H]6CC[C@H](C)N6C(=O)[C@@H](NC(=O)OC)C6C[C@@H](C)O[C@H](C)C6)[nH]c54)cc2-3)[nH]1)C1CC(C)O[C@H](C)C1 (stereo in doubt) [Compound 10, methyl ((S)-2-((2S,5S)-2-(9-(4-bromo-2-((2S,5S)-1-((S)-2-((2R,6R)-2,6-dimethyltetrahydro-2H-pyran-4-yl)-2-((methoxycarbonyl)amino)acetyl)-5-methylpyrrolidin-2-yl)-1H-imidazol-5-yl)-1,11-dihydroisochromeno[4′,3′:6,7]naphtho[1,2-d]imidazol-2-yl)-5-methylpyrrolidin-1-yl)-1-((2R,6R)-2,6-dimethyltetrahydro-2H-pyran-4-yl)-2-oxoethyl)carbamate] | – | 18.8 |
| CC[C@H](C)[C@H](NC(=O)OC)C(=O)N1C[C@@H](COC)C[C@H]1c1nc(C#N)c(-c2ccc3c(c2)COc2cc4c(ccc5nc([C@@H]6CC[C@H](C)N6C(=O)[C@@H](NC(=O)OC)C(C)C)[nH]c54)cc2-3)[nH]1 [Compound 16, methyl ((S)-1-((2S,5S)-2-(9-(4-cyano-2-((2S,4S)-1-((methoxycarbonyl)-L-isoleucyl)-4-(methoxymethyl)pyrrolidin-2-yl)-1H-imidazol-5-yl)-1,11-dihydroisochromeno[4′,3′:6,7]naphtho[1,2-d]imidazol-2-yl)-5-methylpyrrolidin-1-yl)-3-methyl-1-oxobutan-2-yl)carbamate] | – | 43.4 |
| CC[C@@H](C)[C@H](NC(=O)OC)C(=O)N1[C@@H](C)CC[C@H]1c1nc(Cl)c(-c2ccc3c(c2)COc2cc4c(ccc5nc([C@@H]6CC[C@H](C)N6C(=O)[C@@H](NC(=O)OC)[C@H](C)CC)[nH]c54)cc2-3)[nH]1 [Compound 25, methyl ((2S,3R)-1-((2S,5S)-2-(4-chloro-5-(2-((2S,5S)-1-((methoxycarbonyl)-L-alloisoleucyl)-5-methylpyrrolidin-2-yl)-1,11-dihydroisochromeno[4′,3′:6,7]naphtho[1,2-d]imidazol-9-yl)-1H-imidazol-2-yl)-5-methylpyrrolidin-1-yl)-3-methyl-1-oxopentan-2-yl)carbamate] | – | 8.3 |
| CC[C@@H](C)[C@H](NC(=O)OC)C(=O)N1CCC[C@H]1c1nc(Cl)c(-c2ccc3c(c2)COc2cc4c(ccc5nc([C@@H]6CCCN6C(=O)[C@@H](NC(=O)OC)[C@H](C)CC)[nH]c54)cc2-3)[nH]1 [Compound 28, methyl ((2S,3R)-1-((S)-2-(4-chloro-5-(2-((S)-1-((methoxycarbonyl)-L-alloisoleucyl)pyrrolidin-2-yl)-1,11-dihydroisochromeno[4′,3′:6,7]naphtho[1,2-d]imidazol-9-yl)-1H-imidazol-2-yl)pyrrolidin-1-yl)-3-methyl-1-oxopentan-2-yl)carbamate] | – | 31.5 |
| COC(=O)N[C@H](C(=O)N1[C@@H](C)CC[C@H]1c1nc(Cl)c(-c2ccc3c(c2)COc2cc4c(ccc5nc([C@@H]6CC[C@H](C)N6C(=O)[C@@H](NC(=O)OC)C(C)C)[nH]c54)cc2-3)[nH]1)C(C)C [Compound 21, methyl ((S)-1-((2S,5S)-2-(4-chloro-5-(2-((2S,5S)-1-((methoxycarbonyl)-L-valyl)-5-methylpyrrolidin-2-yl)-1,11-dihydroisochromeno[4′,3′:6,7]naphtho[1,2-d]imidazol-9-yl)-1H-imidazol-2-yl)-5-methylpyrrolidin-1-yl)-3-methyl-1-oxobutan-2-yl)carbamate] | – | 18.9 |
| COC[C@H]1C[C@@H](c2nc(Cl)c(-c3ccc4c(c3)COc3cc5c(ccc6nc([C@@H]7CC[C@H](C)N7C(=O)[C@@H](NC(=O)OC)C(C)C)[nH]c65)cc3-4)[nH]2)N(C(=O)[C@@H](NC(=O)OC)C2CCOCC2)C1 [Compound 6, methyl ((S)-1-((2S,5S)-2-(9-(4-chloro-2-((2S,4S)-1-((S)-2-((methoxycarbonyl)amino)-2-(tetrahydro-2H-pyran-4-yl)acetyl)-4-(methoxymethyl)pyrrolidin-2-yl)-1H-imidazol-5-yl)-1,11-dihydroisochromeno[4′,3′:6,7]naphtho[1,2-d]imidazol-2-yl)-5-methylpyrrolidin-1-yl)-3-methyl-1-oxobutan-2-yl)carbamate] | – | 133 |
| COC(=O)N[C@H](C(=O)N1[C@@H](C)CC[C@H]1c1nc(C2CC2)c(-c2ccc3c(c2)COc2cc4c(ccc5nc([C@@H]6CC[C@H](C)N6C(=O)[C@@H](NC(=O)OC)C(C)(C)CF)[nH]c54)cc2-3)[nH]1)C(C)(C)CF [Compound 42, methyl ((S)-1-((2S,5S)-2-(4-cyclopropyl-5-(2-((2S,5S)-1-((S)-4-fluoro-2-((methoxycarbonyl)amino)-3,3-dimethylbutanoyl)-5-methylpyrrolidin-2-yl)-1,11-dihydroisochromeno[4′,3′:6,7]naphtho[1,2-d]imidazol-9-yl)-1H-imidazol-2-yl)-5-methylpyrrolidin-1-yl)-4-fluoro-3,3-dimethyl-1-oxobutan-2-yl)carbamate] | – | 21.4 |
